Test results from US7888319B2, “Compositions and methods for promoting wound healing and tissue regeneration” (MUSC Foundation for Research Development, priority 2004, dated 2011).
Ends that are not written are not given here.

Test system: Cx43 gap junction formation
Assay: Cx43 gap junction formation in cultured neonatal myocytes
Format: cell-based, rat
Details: 30 μM peptide, 5 days in culture, relative to non-active control peptide and PBS
Procedure: Myocytes from neonatal rat hearts were grown until forming a near-confluent monolayer on a tissue culture dish according to standard protocols. The cultures were subsequently allowed to culture for a further 5 days in culture medium comprising (a) 30 μM ACT 1 peptide (SEQ ID NO:2), (b) 30 μM non-active control peptide (SEQ ID NO:55), or (c) phosphate buffered saline (PBS) containing no ACT peptide or control. Culture media with added peptides or vehicle control was changed every 24 hours during the experiment. […] This increase in Cx43 gap junction formation in response to ACT peptide is shared by a number of cell types expressing Cx43.
Myocytes from neonatal rat hearts were grown until forming a near-confluent monolayer on a tissue culture dish according to standard protocols. The cultures were subsequently allowed to culture for a further 5 days culture medium comprising 30 μM ACT 1 peptide (SEQ ID NO:2), 30 μM non-active control peptide (SEQ ID NO:55), or phosphate buffered saline (PBS) containing no ACT peptide or control peptide. The non-active control peptide comprises a polypeptide with a carboxy terminus in which the ACT peptide sequence has been reversed. […]

## RPRPDDLEI (not fully specified (N-terminus)) [ACT 1, carboxy-terminal 9 amino acids of human Cx43; amino terminus biotinylated in tests]
  extent of Cx43 gap junction formation between myocytes: greatly increased
